Laboratory results from paper PMC6348444, “New Water-Soluble Copper(II) Complexes with Morpholine–Thiosemicarbazone Hybrids: Insights into the Anticancer and Antibacterial Mode of Action” (Journal of Medicinal Chemistry, 2018).

Columns and labels:
A2780 cells = assay: MTT cytotoxicity assay, A2780; type: cell-based, human; conditions: 72 h exposure
A2780cisR cells = assay: MTT cytotoxicity assay, A2780cisR; type: cell-based, human; conditions: for RF (resistance factor): IC50(A2780cisR)/IC50(A2780); for IC50: MTT assay, 72 h exposure, cisplatin-resistant A2780cisR, read-out: IC50 A2780cis
HEK293 cells = assay: MTT cytotoxicity assay, HEK293; type: cell-based, human; conditions: for SF (selectivity factor): IC50(HEK293)/IC50(A2780); for IC50: MTT assay, 72 h exposure, noncancerous cells
mouse R2 RNR protein = biological target: T1, mouse R2 RNR protein (Mus musculus, UniProt P11157); assay: Tyrosyl radical reduction in R2 RNR protein by EPR; type: biochemical; conditions: 1:1 protein-to-compound ratio, 298 K, presence of DTT, within 90 s
T1 construct: made in house; host or cells: Escherichia coli
T1 sequence (P11157 1-390): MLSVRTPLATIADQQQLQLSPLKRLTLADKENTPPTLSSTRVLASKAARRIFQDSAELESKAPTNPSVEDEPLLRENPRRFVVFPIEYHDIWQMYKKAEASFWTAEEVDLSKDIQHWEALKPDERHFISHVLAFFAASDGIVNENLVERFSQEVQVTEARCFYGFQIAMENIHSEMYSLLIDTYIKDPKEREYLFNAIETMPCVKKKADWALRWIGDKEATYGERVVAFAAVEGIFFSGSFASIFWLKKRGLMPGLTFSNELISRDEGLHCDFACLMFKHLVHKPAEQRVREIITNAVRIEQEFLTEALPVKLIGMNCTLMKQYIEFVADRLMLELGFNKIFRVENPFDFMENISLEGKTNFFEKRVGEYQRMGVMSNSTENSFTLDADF
Procedure: The effects of the most cytotoxic complexes 2 and 5, and the corresponding proligands HL^2 and HL^5, on the mouse R2 tyrosyl radical were investigated by EPR spectroscopy at 30 K. The proligands and their Cu(II) complexes were incubated with the mouse R2 RNR protein at 1:1 protein-to-compound mole ratio at 298 K in the presence or absence of the reducing agent dithiothreitol (DTT), and the time-dependent reduction of the tyrosyl radical was monitored.[39] Tyrosyl radical reduction by the investigated compounds was observed only in the presence of DTT. Upon incubation with HL^2, HL^5, and 2, 5, 50% of tyrosyl radical was reduced within 90 s, after which no further reduction was observed (Figure S15). […] HL^2 and HL^5 (λmax = 312 and 320 nm, respectively) readily reacted with FeSO4·7H2O affording Fe(II) bis-ligand complexes (λmax = 373, 610 nm and λmax = 385, 645 nm, respectively) at both 1:1 and 1:2 Fe-to-ligand mole ratios. […]
The 9.4 GHz EPR spectra were recorded at 30 K on a Bruker EleXsys II E540 EPR spectrometer with an Oxford Instruments ESR900 helium cryostat, essentially as described previously.[51] […]

Structure (SMILES)	IC50 (A2780 cells) [nM]	RF (resistance factor) (A2780cisR cells)	IC50 (A2780cisR cells) [nM]	SF (selectivity factor) (HEK293 cells)	IC50 (HEK293 cells) [nM]	tyrosyl radical reduced (mouse R2 RNR protein) [%]
[Cl][Cu][S]C(=NN=Cc1ccc(CN2CCOCC2)cn1)Nc1ccccc1 [complex 5, [Cu(L^5)Cl]]	9 ± 2	1.9	17 ± 2	2.2	20 ± 3	50
CN(C)C(=NN=Cc1ccc(CN2CCOCC2)cn1)[S][Cu][Cl] [complex 2, [Cu(L^2)Cl]]	12 ± 2	2.5	30 ± 3	2.7	32 ± 8	50
